Source: patent US20130072474A1, “TREATMENT OF DEMENTIA OF ALZHEIMER'S TYPE WITH MASITINIB” (AB SCIENCE, priority 2010, published 2013)
“Also recorded” adds a separate entry of the source.

How the values were obtained:
Format in all cases: in vivo, human
[1] = test system: patients suffering from mild to moderate dementia of Alzheimer's type; assay: Phase 2 study, ADAS-Cog (cognitive function); set-up: key to ADAS-Cog absolute changes, Mean ± Std / ADAS-Cog absolute changes, Median: change in ADAS-Cog score (0-70 scale; higher = greater cognitive impairment); conditions: for ADAS-Cog No change, rate of patients / ADAS-Cog Response (Decrease >=4), rate of patients / ADAS-Cog Response without deterioration (in ADCS-ADL and CIBIC-plus), rate of patients / ADAS-Cog Worsening (Increase >=4), rate of patients / ADAS-Cog absolute changes, Mean ± Std / ADAS-Cog absolute changes, Median: ITT population
Text: (§1) A multicenter, randomized, double-blind, placebo-controlled, parallel-group phase 2 study evaluating the activity of masitinib given orally for 24 weeks has been performed in patients suffering from mild to moderate dementia of Alzheimer's type (protocol period completed, extension ongoing).
(§2) Patients: Patients enrolled in this study had dementia of Alzheimer's type (according to DSM IV criteria), probable Alzheimer's disease according to NINCDS-ADRDA criteria, MMSE≧12 and ≦26, and CDR of 1 or 2. […] Exclusion criteria included inadequate organ function (defined via blood test levels), dementia due to any other causes, uncontrolled depression, psychosis, delusions or delirium.
(§3) Treatment: In addition to a stable dose of acetylcholinesterase inhibitors and/or memantine, patients received masitinib or placebo, supplied as 100 and 200 mg tablets, per os for 24 weeks. Patients received masitinib or placebo initially at a daily total dose of 3 mg/kg or 6 mg/kg, administered twice daily with meals. Dose could be increased or decreased by 1.5 mg/kg/day depending on efficacy and toxicity assessments. Five patients were allocated to each masitinib dose for every three placebo patients. Treatment with any registered or putative cognitive enhancer or disease modifier (other than donepezil, galantamine, rivastigmine or memantine), or any investigational therapies was not allowed.
ADAS-Cog: Alzheimer's Disease Assessment Scale, a cognitive sub-scale which examines selected aspects of cognitive performance including elements of memory, orientation, attention, reasoning, language and praxis. The ADAS-Cog scoring range is from 0 to 70, with higher scores indicating greater cognitive impairment.
(§4) Statistical analyses: Efficacy was analyzed in the intent-to-treat (ITT) (all randomized patients, according to group of randomization) and per protocol (PP) (all patients without a major protocol deviation) populations. […] Efficacy criteria were analyzed using descriptive statistics, numbers and rates for categorical and discontinuous variables, parametric and non-parametric distribution elements for continuous variables.
(§5) Results are presented for the ITT population in the OC dataset (with LOCF for Centre #21 at Week 24).

[2] = test system: patients suffering from mild to moderate dementia of Alzheimer's type; assay: Phase 2 study, MMSE; conditions: for MMSE score, absolute change relative to baseline, Mean ± Std / MMSE score, absolute change relative to baseline, Median: Observed Cases, ITT population
Text: as §1, §2, §3
MMSE: assesses six items: orientation, learning, attention, word recall, language use and comprehension, and constructive praxis. A global score from 0 to 30 was computed, with higher scores indicating greater cognitive function (Folstein et al., 1975).
as §4, §5

[3] = test system: patients suffering from mild to moderate dementia of Alzheimer's type; assay: Phase 2 study, safety (adverse events, NCI CTCAE v3.0); conditions: for At least one AE, All, patients: regardless of causality
Text: as §1
Patients: Patients enrolled in this study had dementia of Alzheimer's type (according to DSM IV criteria), probable Alzheimer's disease according to NINCDS-ADRDA criteria, MMSE≧12 and ≦26, and CDR of 1 or 2. Patients had been receiving a stable dose of acetylcholinesterase inhibitors for a minimum of 6 months and/or memantine for a minimum of 3 months. Exclusion criteria included inadequate organ function (defined via blood test levels), dementia due to any other causes, uncontrolled depression, psychosis, delusions or delirium.
as §3
Safety was monitored throughout the study, and graded according to the NCI CTCAE v3.0 in all patients receiving at least one dose of masitinib. Safety assessment was based upon the frequency and severity of adverse events (AE), regardless of causality.
Safety was assessed in the safety population (all patients receiving at least one drug administration), with descriptive statistics.

[4] = W 24 LOCF center 21, Observed Cases

For `Cc1ccc(NC(=O)c2ccc(CN3CCN(C)CC3)cc2)cc1Nc1nc(-c2cccnc2)cs1` [masitinib, 4-(4-methylpiperazin-1-ylmethyl)-N-[4-methyl-3-(4-pyridin-3ylthiazol-2-ylamino)phenyl]benzamide], the “ADAS-Cog No change, rate of patients” value ([1]; W 4, Observed Cases) was 17 (70.8%), the “ADAS-Cog Response (Decrease >=4), rate of patients” value ([1]; W 4, Observed Cases) was 3 (12.5%) and the “ADAS-Cog Response without deterioration (in ADCS-ADL and CIBIC-plus), rate of patients” value (shortened to “ADAS-Cog Response without deterioration”) ([1]; W 4, Observed Cases) was 2 (9.1%). The “ADAS-Cog Worsening (Increase >=4), rate of patients” value ([1]; W 4, Observed Cases) was 4 (16.7%), the “ADAS-Cog absolute changes, Mean ± Std” value ([1]; W 4, Observed Cases) was −0.0 ± 6.1 and the “ADAS-Cog absolute changes, Median” value ([1]; W 4, Observed Cases) was −1.5. For the same compound, the “ADAS-Cog No change, rate of patients” value ([1]; W 8, Observed Cases) was 4 (44.4%), the “ADAS-Cog Response (Decrease >=4), rate of patients” value ([1]; W 8, Observed Cases) was 4 (44.4%) and the “ADAS-Cog Response without deterioration” value ([1]; W 8, Observed Cases) was 2 (25.0%). The “ADAS-Cog Worsening (Increase >=4), rate of patients” value ([1]; W 8, Observed Cases) was 1 (11.1%), the “ADAS-Cog absolute changes, Mean ± Std” value ([1]; W 8, Observed Cases) was −0.8 ± 8.1 and the “ADAS-Cog absolute changes, Median” value ([1]; W 8, Observed Cases) was −2.8. For the same compound, the “ADAS-Cog No change, rate of patients” value ([1]; W 12, Observed Cases) was 9 (52.9%), the “ADAS-Cog Response (Decrease >=4), rate of patients” value ([1]; W 12, Observed Cases) was 7 (41.2%) and the “ADAS-Cog Response without deterioration” value ([1]; W 12, Observed Cases) was 25%. For the same compound, the “ADAS-Cog Worsening (Increase >=4), rate of patients” value ([1]; W 12, Observed Cases) was 1 (5.9%), the “ADAS-Cog absolute changes, Mean ± Std” value ([1]; W 12, Observed Cases) was −2.6 ± 3.6 and the “ADAS-Cog absolute changes, Median” value ([1]; W 12, Observed Cases) was −2.4. The “ADAS-Cog Response without deterioration” value ([1]; W 12, Observed Cases, listed as AB1010) was 4 (25.0%), the “ADAS-Cog No change, rate of patients” value ([1]; W 24, Observed Cases) was 5 (55.6%) and the “ADAS-Cog Response (Decrease >=4), rate of patients” value ([1]; W 24, Observed Cases) was 3 (33.3%). For the same compound, the “ADAS-Cog Response without deterioration” value ([1]; W 24, Observed Cases) was 2 (25.0%), the “ADAS-Cog Worsening (Increase >=4), rate of patients” value ([1]; W 24, Observed Cases) was 1 (11.1%) and the “ADAS-Cog absolute changes, Mean ± Std” value ([1]; W 24, Observed Cases) was −0.7 ± 7.8. For the same compound, the “ADAS-Cog absolute changes, Median” value ([1]; W 24, Observed Cases) was −0.3, the “ADAS-Cog No change, rate of patients” value [1, 4] was 9 (56.3%) and the “ADAS-Cog Response (Decrease >=4), rate of patients” value [1, 4] was 38%. The “ADAS-Cog Response without deterioration” value [1, 4] was 5 (33.3%), the “ADAS-Cog Worsening (Increase >=4), rate of patients” value [1, 4] was 1 (6.3%) and the “ADAS-Cog absolute changes, Mean ± Std” value [1, 4] was −1.8 ± 6.1. The “ADAS-Cog absolute changes, Median” value [1, 4] was −2.5, the “ADAS-Cog Response (Decrease >=4), rate of patients” value ([1]; W 24 LOCF center 21, observed cases, listed as AB1010) was 6 (37.5%) and the “ADAS-Cog score, mean decrease (i.e. improvement)” value ([1]; Week 12, ITT) was 2.6±3.6 units. For the same compound, the “ADAS-Cog score, mean decrease” value ([1]; week 24, ITT) was 0.7±7.8 units, the “MMSE scores in masitinib-treated patients over time” value ([2]; 24 weeks, placebo-treated patients deteriorated (Week 12 p=0.047, Week 24 p=0.031)) was “remained stable over time” and the “MMSE score, absolute change relative to baseline, Mean ± Std” value ([2]; W 4) was 0.2 ± 2.0. The “MMSE score, absolute change relative to baseline, Median” value ([2]; W 4) was −0.5, the “MMSE score, absolute change relative to baseline, Mean ± Std” value ([2]; W 8) was −0.6 ± 2.8 and the “MMSE score, absolute change relative to baseline, Median” value ([2]; W 8) was 0.0. For the same compound, the “MMSE score, absolute change relative to baseline, Mean ± Std” value ([2]; W 12) was 0.1 ± 2.5, the “MMSE score, absolute change relative to baseline, Median” value ([2]; W 12) was 0.0 and the “MMSE score, absolute change relative to baseline, Mean ± Std” value ([2]; W 24) was −0.4 ± 5.6. The “MMSE score, absolute change relative to baseline, Median” value ([2]; W 24) was 1.0, the “MMSE score, absolute change relative to baseline, Mean ± Std” value ([2]; W 24 LOCF center 21) was −0.1 ± 4.3 and the “MMSE score, absolute change relative to baseline, Median” value ([2]; W 24 LOCF center 21) was 0.0. For the same compound, the “dose effect on frequency of overall and individual AEs” value ([3]; 3 versus 6 mg/kg/day arms) was “no dose effect in terms of toxicity”, the “patients who experienced edema” value ([3]; 26 masitinib-treated patients) was 27% and the “patients who experienced nausea/vomiting” value ([3]; 26 masitinib-treated patients) was 27%. The “patients who experienced rash” value ([3]; 26 masitinib-treated patients) was 15%, the “patients with at least one AE considered related” value ([3]; 26 masitinib-treated patients) was 58% and the “patients with at least one related serious adverse event” value ([3]; 26 masitinib-treated patients) was 19%. For the same compound, the “patients with related AEs leading to treatment discontinuation” value ([3]; 26 masitinib-treated patients) was 35%, the “Anemia, All, patients” value ([3]; N = 26) was “(50.0%)” and the “Anemia, Moderate, patients” value ([3]; N = 26) was “(7.7%)”. For the same compound, the “Anorexia, All, patients” value ([3]; N = 26) was “(15.4%)”, the “Anorexia, Moderate, patients” value ([3]; N = 26) was “(7.7%)” and the “Anorexia, Severe, patients” value ([3]; N = 26) was “(7.7%)”. The “Asthenia, All, patients” value ([3]; N = 26) was “(11.5%)”, the “Asthenia, Moderate, patients” value ([3]; N = 26) was “(3.8%)” and the “Asthenia, Severe, patients” value ([3]; N = 26) was “(3.8%)”. The “At least one AE, Moderate, patients” value ([3]; N = 26) was “(42.3%)”, the “At least one AE, Severe, patients” value ([3]; N = 26) was 15% and the “Depression, All, patients” value ([3]; N = 26) was “(7.7%)”. For the same compound, the “Diarrhea, All, patients” value ([3]; N = 26) was 23%, the “Diarrhea, Moderate, patients” value ([3]; N = 26) was “(11.5%)” and the “Eyelid edema, All, patients” value ([3]; N = 26) was “(15.4%)”. The “Eyelid edema, Moderate, patients” value ([3]; N = 26) was “(7.7%)”, the “Leukopenia, All, patients” value ([3]; N = 26) was “(26.9%)” and the “Leukopenia, Moderate, patients” value ([3]; N = 26) was “(3.8%)”. For the same compound, the “Nausea, All, patients” value ([3]; N = 26) was “(15.4%)”, the “Nausea, Moderate, patients” value ([3]; N = 26) was “(3.8%)” and the “Nausea, Severe, patients” value ([3]; N = 26) was “(3.8%)”. The “Neutropenia, All, patients” value ([3]; N = 26) was “(42.3%)”, the “Peripheral edema, All, patients” value ([3]; N = 26) was “(19.2%)” and the “Peripheral edema, Moderate, patients” value ([3]; N = 26) was “(11.5%)”. The “Thrombocytopenia, All, patients” value ([3]; N = 26) was “(15.4%)”, the “Vomiting, All, patients” value ([3]; N = 26) was “(11.5%)” and the “Vomiting, Moderate, patients” value ([3]; N = 26) was “(7.7%)”. For the same compound, the “Weight Decreased, All, patients” value ([3]; N = 26) was “(7.7%)”, the “Weight Decreased, Moderate, patients” value ([3]; N = 26) was “(7.7%)” and the “At least one AE, Severe, patients” value ([3]; N = 26, listed as Masitinib) was “(15.4%)”. The “Diarrhea, All, patients” value ([3]; N = 26, listed as Masitinib) was “(23.1%)”, the “At least one AE, All, patients” value ([3]; N = 26) was 65% and the “At least one AE, All, patients” value ([3]; N = 26, listed as Masitinib) was “(65.4%)”. For the same compound, the “patients in the masitinib arm who withdrew due to related AEs” value ([3]; before completion of the 24-week treatment period, of 17 masitinib patients who withdrew) was 41%, the “patients with dose reductions due to AEs (all considered related)” value ([3]; masitinib-treated patients) was “four” and the “patients with severe transaminase elevation” value ([3]; masitinib-treated patients) was “One”. For the same compound, the deaths ([3]; phase 2 study) was “No deaths were reported; also recorded: No patients died”.
